From the supplement of paper PMC10307832

Legend:
Experiment in all cases: relative viability (nuclei count vs DMSO), 5 days (fraction); higher = more cells survive
BX 795 = compound: O=C(NCCCNc1nc(Nc2cccc(NC(=O)N3CCCC3)c2)ncc1I)c1cccs1 [BX 795]
Summary of the method: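 On vehicle-anchored 1536-well plates, lung cancer cell lines held overnight at 37 °C were pinned with five library-drug doses (not always all listed) spaced by √10. With no medium change over 5 days, they were then fixed, permeabilised and Hoechst-stained in one step and imaged at 4×. MetaXpress counted nuclei, and viability is the median across plates of treated-well over vehicle-well nuclei. Acceptance needed control CV below 25% and at least one doubling.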

BX 795 + Pemetrexed = compound: O=C(NCCCNc1nc(Nc2cccc(NC(=O)N3CCCC3)c2)ncc1I)c1cccs1 [BX 795] + Nc1nc2[nH]cc(CCc3ccc(C(=O)N[C@@H](CCC(=O)O)C(=O)O)cc3)c2c(=O)[nH]1 [Pemetrexed] (partner 0.2 µM)
Summary of the method: (§1)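 Each reported value is a median over duplicate plates. It expresses relative viability: treated-well nuclei count divided by vehicle-well nuclei count. Lung cancer cell lines in 1536-well plates were dosed by pin tool a day after seeding, alone with one drug or with a fixed anchor-drug dose plus five library-drug doses (not always all listed) in √10 steps, and nuclei were counted after 5 days.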

BX 795 + OSI-027 = compound: O=C(NCCCNc1nc(Nc2cccc(NC(=O)N3CCCC3)c2)ncc1I)c1cccs1 [BX 795] + COc1cccc2cc(-c3nc([C@H]4CC[C@H](C(=O)O)CC4)n4ncnc(N)c34)[nH]c12 [OSI-027] (partner 0.5 µM)
Summary of the method: as §1

BX 795 + Decitabine = compound: O=C(NCCCNc1nc(Nc2cccc(NC(=O)N3CCCC3)c2)ncc1I)c1cccs1 [BX 795] + Nc1ncn([C@H]2C[C@H](O)[C@@H](CO)O2)c(=O)n1 [Decitabine] (partner 2 µM)
Summary of the method: as §1

BX 795 + Luminespib = compound: O=C(NCCCNc1nc(Nc2cccc(NC(=O)N3CCCC3)c2)ncc1I)c1cccs1 [BX 795] + CCNC(=O)c1noc(-c2cc(C(C)C)c(O)cc2O)c1-c1ccc(CN2CCOCC2)cc1 [Luminespib] (partner 0.01 µM)
Summary of the method: as §1

BX 795 + AZD7762 = compound: O=C(NCCCNc1nc(Nc2cccc(NC(=O)N3CCCC3)c2)ncc1I)c1cccs1 [BX 795] + NC(=O)Nc1cc(-c2cccc(F)c2)sc1C(=O)N[C@H]1CCCNC1 [AZD7762] (partner 0.2 µM)
Summary of the method: as §1

BX 795 + Dasatinib = compound: O=C(NCCCNc1nc(Nc2cccc(NC(=O)N3CCCC3)c2)ncc1I)c1cccs1 [BX 795] + Cc1nc(Nc2ncc(C(=O)Nc3c(C)cccc3Cl)s2)cc(N2CCN(CCO)CC2)n1 [Dasatinib] (partner 0.075 µM)
Summary of the method: as §1

BX 795 + Tozasertib = compound: O=C(NCCCNc1nc(Nc2cccc(NC(=O)N3CCCC3)c2)ncc1I)c1cccs1 [BX 795] + Cc1cc(Nc2cc(N3CCN(C)CC3)nc(Sc3ccc(NC(=O)C4CC4)cc3)n2)n[nH]1 [Tozasertib] (partner 0.1 µM)
Summary of the method: as §1

BX 795 + Trametinib = compound: O=C(NCCCNc1nc(Nc2cccc(NC(=O)N3CCCC3)c2)ncc1I)c1cccs1 [BX 795] + CC(=O)Nc1cccc(-n2c(=O)n(C3CC3)c(=O)c3c(Nc4ccc(I)cc4F)n(C)c(=O)c(C)c32)c1 [Trametinib] (partner 0.02 µM)
Summary of the method: as §1

BX 795 + Vorinostat = compound: O=C(NCCCNc1nc(Nc2cccc(NC(=O)N3CCCC3)c2)ncc1I)c1cccs1 [BX 795] + O=C(CCCCCCC(=O)Nc1ccccc1)NO [Vorinostat] (partner 1 µM)
Summary of the method: as §1

BX 795 + Olaparib = compound: O=C(NCCCNc1nc(Nc2cccc(NC(=O)N3CCCC3)c2)ncc1I)c1cccs1 [BX 795] + O=C(c1cc(Cc2n[nH]c(=O)c3ccccc23)ccc1F)N1CCN(C(=O)C2CC2)CC1 [Olaparib] (partner 8 µM)
Summary of the method: as §1

BX 795 + Phenformin = compound: O=C(NCCCNc1nc(Nc2cccc(NC(=O)N3CCCC3)c2)ncc1I)c1cccs1 [BX 795] + N=C(N)NC(=N)NCCc1ccccc1 [Phenformin] (partner 250 µM)
Summary of the method: as §1

BX 795 + Foretinib = compound: O=C(NCCCNc1nc(Nc2cccc(NC(=O)N3CCCC3)c2)ncc1I)c1cccs1 [BX 795] + COc1cc2c(Oc3ccc(NC(=O)C4(C(=O)Nc5ccc(F)cc5)CC4)cc3F)ccnc2cc1OCCCN1CCOCC1 [Foretinib] (partner 0.25 µM)
Summary of the method: as §1

BX 795 + Palbociclib = compound: O=C(NCCCNc1nc(Nc2cccc(NC(=O)N3CCCC3)c2)ncc1I)c1cccs1 [BX 795] + CC(=O)c1c(C)c2cnc(Nc3ccc(N4CCNCC4)cn3)nc2n(C2CCCC2)c1=O [Palbociclib] (partner 0.5 µM)
Summary of the method: as §1

## NCI-H2342
BX 795; 0.04 µM
  relative viability: 1.03
BX 795; 0.1265 µM
  relative viability: 0.939
BX 795; 0.4 µM
  relative viability: 0.924
BX 795; 1.265 µM
  relative viability: 0.978
BX 795 + Pemetrexed; first compound 0.04 µM
  relative viability: 0.782
BX 795 + Pemetrexed; first compound 0.1265 µM
  relative viability: 0.718
BX 795 + Pemetrexed; first compound 0.4 µM
  relative viability: 0.758
BX 795 + Pemetrexed; first compound 1.265 µM
  relative viability: 0.715
BX 795 + OSI-027; first compound 0.04 µM
  relative viability: 0.66
BX 795 + OSI-027; first compound 0.1265 µM
  relative viability: 0.569
BX 795 + OSI-027; first compound 0.4 µM
  relative viability: 0.591
BX 795 + OSI-027; first compound 1.265 µM
  relative viability: 0.637
BX 795 + Decitabine; first compound 0.04 µM
  relative viability: 0.87
BX 795 + Decitabine; first compound 0.1265 µM
  relative viability: 0.686
BX 795 + Decitabine; first compound 0.4 µM
  relative viability: 0.823
BX 795 + Decitabine; first compound 1.265 µM
  relative viability: 0.641
BX 795 + Luminespib; first compound 0.04 µM
  relative viability: 0.793
BX 795 + Luminespib; first compound 0.1265 µM
  relative viability: 0.588
BX 795 + Luminespib; first compound 0.4 µM
  relative viability: 0.79
BX 795 + Luminespib; first compound 1.265 µM
  relative viability: 0.743
BX 795 + AZD7762; first compound 0.04 µM
  relative viability: 0.591
BX 795 + AZD7762; first compound 0.1265 µM
  relative viability: 0.538
BX 795 + AZD7762; first compound 0.4 µM
  relative viability: 0.481
BX 795 + AZD7762; first compound 1.265 µM
  relative viability: 0.399
BX 795 + Dasatinib; first compound 0.04 µM
  relative viability: 0.307
BX 795 + Dasatinib; first compound 0.1265 µM
  relative viability: 0.319
BX 795 + Dasatinib; first compound 0.4 µM
  relative viability: 0.287
BX 795 + Dasatinib; first compound 1.265 µM
  relative viability: 0.312
BX 795 + Tozasertib; first compound 0.04 µM
  relative viability: 0.579
BX 795 + Tozasertib; first compound 0.1265 µM
  relative viability: 0.471
BX 795 + Tozasertib; first compound 0.4 µM
  relative viability: 0.507
BX 795 + Tozasertib; first compound 1.265 µM
  relative viability: 0.46
BX 795 + Trametinib; first compound 0.04 µM
  relative viability: 0.796
BX 795 + Trametinib; first compound 0.1265 µM
  relative viability: 0.774
BX 795 + Trametinib; first compound 0.4 µM
  relative viability: 0.892
BX 795 + Trametinib; first compound 1.265 µM
  relative viability: 0.766
BX 795 + Vorinostat; first compound 0.04 µM
  relative viability: 0.754
BX 795 + Vorinostat; first compound 0.1265 µM
  relative viability: 0.734
BX 795 + Vorinostat; first compound 0.4 µM
  relative viability: 0.651
BX 795 + Vorinostat; first compound 1.265 µM
  relative viability: 0.726
BX 795 + Olaparib; first compound 0.04 µM
  relative viability: 0.497
BX 795 + Olaparib; first compound 0.1265 µM
  relative viability: 0.448
BX 795 + Olaparib; first compound 0.4 µM
  relative viability: 0.479
BX 795 + Olaparib; first compound 1.265 µM
  relative viability: 0.357
BX 795 + Phenformin; first compound 0.04 µM
  relative viability: 0.643
BX 795 + Phenformin; first compound 0.1265 µM
  relative viability: 0.515
BX 795 + Phenformin; first compound 0.4 µM
  relative viability: 0.538
BX 795 + Phenformin; first compound 1.265 µM
  relative viability: 0.544
BX 795 + Foretinib; first compound 0.04 µM
  relative viability: 1.17
BX 795 + Foretinib; first compound 0.1265 µM
  relative viability: 0.896
BX 795 + Foretinib; first compound 0.4 µM
  relative viability: 1.07
BX 795 + Foretinib; first compound 1.265 µM
  relative viability: 0.914
BX 795 + Palbociclib; first compound 0.04 µM
  relative viability: 0.599
BX 795 + Palbociclib; first compound 0.1265 µM
  relative viability: 0.518
BX 795 + Palbociclib; first compound 0.4 µM
  relative viability: 0.47
BX 795 + Palbociclib; first compound 1.265 µM
  relative viability: 0.498
